This passage reports IC50 and Activity results from ChEMBL document CHEMBL2390816, “Structure-based optimization of oxadiazole-based GSK-3 inhibitors” (Eur J Med Chem, 2013).

Data set [1] deals with Protein kinase C alpha type (Homo sapiens, UniProt P17252). Briefly: Inhibition of human recombinant PKCalpha by FRET assay.
A further data set addresses T1, Aurora kinase A (Homo sapiens, UniProt O14965).
T1 sequence (O14965 whole entry): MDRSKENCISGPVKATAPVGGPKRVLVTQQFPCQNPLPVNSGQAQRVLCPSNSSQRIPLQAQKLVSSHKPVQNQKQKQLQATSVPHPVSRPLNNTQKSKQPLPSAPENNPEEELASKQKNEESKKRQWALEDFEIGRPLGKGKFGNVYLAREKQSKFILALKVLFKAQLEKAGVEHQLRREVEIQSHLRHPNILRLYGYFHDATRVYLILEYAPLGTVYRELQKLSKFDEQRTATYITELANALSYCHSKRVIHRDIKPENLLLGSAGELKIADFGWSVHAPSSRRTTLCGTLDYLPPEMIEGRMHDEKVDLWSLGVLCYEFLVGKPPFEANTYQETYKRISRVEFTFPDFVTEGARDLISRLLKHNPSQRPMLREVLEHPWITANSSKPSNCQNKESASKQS
Briefly: Inhibition of human recombinant AURKA by FRET assay.

Data set [2] deals with Casein kinase I isoform epsilon (Homo sapiens, UniProt P49674). Briefly: Inhibition of human recombinant CK1epsilon by FRET assay.
Chain of Casein kinase I isoform epsilon (P49674 whole entry, canonical isoform): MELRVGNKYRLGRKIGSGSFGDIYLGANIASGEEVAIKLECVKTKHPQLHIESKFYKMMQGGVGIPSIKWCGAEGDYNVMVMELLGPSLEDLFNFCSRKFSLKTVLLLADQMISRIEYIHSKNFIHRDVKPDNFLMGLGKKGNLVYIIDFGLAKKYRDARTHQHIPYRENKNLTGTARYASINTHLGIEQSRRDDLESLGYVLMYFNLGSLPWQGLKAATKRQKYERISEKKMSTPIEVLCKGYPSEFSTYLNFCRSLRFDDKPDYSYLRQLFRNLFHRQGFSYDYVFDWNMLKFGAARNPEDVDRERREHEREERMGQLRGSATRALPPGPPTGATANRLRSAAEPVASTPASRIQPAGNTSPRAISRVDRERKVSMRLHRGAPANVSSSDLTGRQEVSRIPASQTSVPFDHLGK
Data set [3] concerns the target Cyclin-dependent kinase 5 (Homo sapiens, UniProt Q00535). Briefly: Inhibition of human recombinant Cdk5/p35 by FRET assay.
Data set [4] has as its target Glycogen synthase kinase-3 beta (Homo sapiens, UniProt P49841). Briefly: Inhibition of human recombinant GSK3beta by FRET assay.
Data set [5] concerns the target Glycogen synthase kinase-3 alpha (Homo sapiens, UniProt P49840). In words: Inhibition of human recombinant GSK3alpha by FRET assay.
The species entered for another data set is Danio rerio. Briefly: Toxicity in wild type zebra fish embryo up to 30 uM. The following applies: zebrafish, in vivo. Format: organism-based.

Chain of Glycogen synthase kinase-3 alpha (P49840 whole entry): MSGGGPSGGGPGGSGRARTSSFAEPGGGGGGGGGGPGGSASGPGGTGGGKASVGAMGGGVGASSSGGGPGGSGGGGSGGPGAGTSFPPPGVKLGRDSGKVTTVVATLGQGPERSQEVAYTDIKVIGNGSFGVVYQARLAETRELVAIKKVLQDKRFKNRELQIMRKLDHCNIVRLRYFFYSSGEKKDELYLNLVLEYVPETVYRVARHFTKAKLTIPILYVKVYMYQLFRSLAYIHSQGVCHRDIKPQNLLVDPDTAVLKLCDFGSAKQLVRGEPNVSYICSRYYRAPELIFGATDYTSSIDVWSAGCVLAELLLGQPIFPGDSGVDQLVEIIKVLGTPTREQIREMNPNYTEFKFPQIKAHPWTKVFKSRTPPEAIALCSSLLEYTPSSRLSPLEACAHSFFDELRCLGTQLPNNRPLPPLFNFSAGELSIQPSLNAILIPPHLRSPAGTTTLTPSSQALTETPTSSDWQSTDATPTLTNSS
Chain of Cyclin-dependent kinase 5 (Q00535 whole entry): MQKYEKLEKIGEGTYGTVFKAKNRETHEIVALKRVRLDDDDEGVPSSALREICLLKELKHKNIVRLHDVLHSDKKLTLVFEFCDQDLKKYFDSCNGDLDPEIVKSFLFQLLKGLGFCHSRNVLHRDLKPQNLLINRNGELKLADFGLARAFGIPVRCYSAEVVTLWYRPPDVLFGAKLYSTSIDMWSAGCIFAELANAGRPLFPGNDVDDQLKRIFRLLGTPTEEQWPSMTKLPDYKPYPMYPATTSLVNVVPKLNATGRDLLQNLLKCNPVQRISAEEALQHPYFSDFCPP
Chain of Glycogen synthase kinase-3 beta (P49841 whole entry): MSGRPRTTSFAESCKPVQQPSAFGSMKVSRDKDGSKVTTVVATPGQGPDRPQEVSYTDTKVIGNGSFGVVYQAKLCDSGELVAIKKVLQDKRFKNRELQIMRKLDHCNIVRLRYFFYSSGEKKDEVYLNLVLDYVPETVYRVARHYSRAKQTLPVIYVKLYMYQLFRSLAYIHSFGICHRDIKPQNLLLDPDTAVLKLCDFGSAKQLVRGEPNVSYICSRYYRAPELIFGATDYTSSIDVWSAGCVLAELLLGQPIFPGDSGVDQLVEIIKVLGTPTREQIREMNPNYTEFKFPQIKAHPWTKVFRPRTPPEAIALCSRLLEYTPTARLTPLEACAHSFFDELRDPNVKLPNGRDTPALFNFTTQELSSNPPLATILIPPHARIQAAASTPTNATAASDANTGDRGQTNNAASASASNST

As a reminder, the IC50 is the concentration that inhibits the measured activity by half. As to `N#Cc1ccc(-c2ccc(CSc3nnc(-c4ccncc4)o3)cc2)cc1`, the half-maximal inhibitory concentration (IC50) in data set [1] was over 100 µM; at Aurora kinase A, over 100 µM; in data set [2] it was over 100 µM; in data set [3] it was over 100 µM; in data set [4], 0.153 µM; in data set [5], 0.077 µM.
`O=[N+]([O-])c1ccccc1-c1ccc(CSc2nnc(-c3ccc4c(c3)OCCO4)o2)cc1`: the IC50 was over 100 µM in data set [1]; over 100 µM on Aurora kinase A; over 100 µM in data set [2]; over 100 µM in data set [3]; 0.09 µM in data set [4]; 0.004 µM in data set [5].
For `O=[N+]([O-])c1ccccc1-c1ccc(CSc2nnc(-c3ccncc3)o2)cc1`, the IC50 was over 100 µM in data set [1]; 5 µM at Aurora kinase A; over 100 µM in data set [2]; over 100 µM in data set [3]; 0.164 µM in data set [4]; 0.027 µM in data set [5].
Turning to `O=[N+]([O-])c1ccccc1-c1ccc(CSc2nnc(-c3ccc4c(c3)OCO4)o2)cc1`, the half-inhibitory concentration (IC50) is over 100 µM in data set [1]; over 100 µM at Aurora kinase A; over 100 µM in data set [2]; over 100 µM in data set [3]; 0.027 µM in data set [4]; 0.003 µM in data set [5].
`c1ccc(-c2ccc(CSc3nnc(-c4ccc5c(c4)OCCO5)o3)cc2)cc1`: the IC50 in data set [1] is over 100 µM; at Aurora kinase A it was over 100 µM; in data set [2], over 100 µM; in data set [3], over 100 µM; in data set [4], 0.234 µM; in data set [5], 0.051 µM.
`N#Cc1cc(F)ccc1-c1ccc(CSc2nnc(-c3ccncc3)o2)cc1`: the half-maximal inhibitory concentration (IC50) in data set [1] is over 100 µM; at Aurora kinase A it was over 100 µM; in data set [2] it was over 100 µM; in data set [3], over 100 µM; in data set [4] it was 0.056 µM; in data set [5], 0.324 µM.
As for `CC(=O)Nc1cc(-c2nnc(SCc3ccc(-c4ccccc4C#N)cc3)o2)ccn1`, the Activity entry in the data set filed under Danio rerio is on record as “Non-toxic”. Also, the half-inhibitory concentration (IC50) in data set [1] is over 100 µM; on Aurora kinase A it was over 100 µM; in data set [2] it was over 100 µM; in data set [3], over 100 µM; in data set [4] it was 0.017 µM; in data set [5] it was 0.002 µM.
As for `N#Cc1cccc(-c2ccc(CSc3nnc(-c4ccc5c(c4)OCO5)o3)cc2)c1`, the IC50 is over 100 µM in data set [1]; over 100 µM on Aurora kinase A; over 100 µM in data set [2]; over 100 µM in data set [3]; 0.029 µM in data set [4]; 0.004 µM in data set [5].
Regarding `COc1ccc(-c2ccc(CSc3nnc(-c4ccc5c(c4)OCCO5)o3)cc2)cc1`, the 50% inhibitory concentration (IC50) was over 100 µM in data set [1]; over 100 µM at Aurora kinase A; over 100 µM in data set [2]; over 100 µM in data set [3]; 0.127 µM in data set [4]; 0.019 µM in data set [5].
On to `O=[N+]([O-])c1cccc(-c2ccc(CSc3nnc(-c4ccc5c(c4)OCO5)o3)cc2)c1`, for which the IC50 in data set [1] was over 100 µM; on Aurora kinase A, over 100 µM; in data set [2] it was over 100 µM; in data set [3], over 100 µM; in data set [4], 0.086 µM; in data set [5], 0.015 µM.
Consider `COc1ccc(-c2ccc(CSc3nnc(-c4ccc5c(c4)OCO5)o3)cc2)cc1`, for which the half-inhibitory concentration (IC50) in data set [1] was over 100 µM; at Aurora kinase A it was 40 µM; in data set [2], 20 µM; in data set [3], over 100 µM; in data set [4], 0.075 µM; in data set [5], 0.007 µM.
As to `CC(=O)Nc1cc(-c2nnc(SCc3cccc(C#N)c3)o2)ccn1`, the IC50 in data set [1] is over 100 µM; at Aurora kinase A it was over 100 µM; in data set [2], over 100 µM; in data set [3], over 100 µM; in data set [4] it was 0.019 µM; in data set [5] it was 0.017 µM.
With `CC(=O)Nc1cc(-c2nnc(SCc3ccccc3)o2)ccn1`, the 50% inhibitory concentration (IC50) is over 100 µM in data set [1]; 60 µM at Aurora kinase A; over 100 µM in data set [2]; over 100 µM in data set [3]; 0.035 µM in data set [4]; 0.02 µM in data set [5].
Consider `O=[N+]([O-])c1cccc(-c2ccc(CSc3nnc(-c4ccc5c(c4)OCCO5)o3)cc2)c1`, for which the 50% inhibitory concentration (IC50) was over 100 µM in data set [1]; over 100 µM at Aurora kinase A; over 100 µM in data set [2]; over 100 µM in data set [3]; 0.164 µM in data set [4]; 0.015 µM in data set [5].
With `N#Cc1cccc(-c2ccc(CSc3nnc(-c4ccc5c(c4)OCCO5)o3)cc2)c1`, the IC50 in data set [1] was over 100 µM; on Aurora kinase A it was over 100 µM; in data set [2] it was over 100 µM; in data set [3] it was over 100 µM; in data set [4], 0.225 µM; in data set [5], 0.009 µM.
`COc1ccc(-c2ccc(CSc3nnc(-c4ccc5c(c4)OCCO5)o3)cc2)c(C#N)c1`: the half-maximal inhibitory concentration (IC50) in data set [1] was over 100 µM; at Aurora kinase A, over 100 µM; in data set [2], over 100 µM; in data set [3], over 100 µM; in data set [4], 0.032 µM; in data set [5], 0.005 µM.
In the case of `COc1ccc(-c2ccc(CSc3nnc(-c4ccncc4)o3)cc2)cc1`, the IC50 is over 100 µM in data set [1]; over 100 µM on Aurora kinase A; over 100 µM in data set [2]; over 100 µM in data set [3]; 0.176 µM in data set [4]; 0.24 µM in data set [5].
Consider `COc1ccc(-c2ccc(CSc3nnc(-c4ccc5c(c4)OCO5)o3)cc2)c(C#N)c1`, for which the Activity entry in the data set filed under Danio rerio is “Non-toxic”. Further, the IC50 in data set [1] was over 100 µM; at Aurora kinase A, 45 µM; in data set [2], 50 µM; in data set [3], over 100 µM; in data set [4], 0.014 µM; in data set [5], 0.005 µM.
As to `N#Cc1ccc(-c2ccc(CSc3nnc(-c4ccc5c(c4)OCCO5)o3)cc2)cc1`, the IC50 was over 100 µM in data set [1]; 50 µM at Aurora kinase A; over 100 µM in data set [2]; over 100 µM in data set [3]; 2 µM in data set [4]; 0.195 µM in data set [5].
As to `N#Cc1cccc(-c2ccc(CSc3nnc(-c4ccncc4)o3)cc2)c1`, the IC50 in data set [1] was over 100 µM; on Aurora kinase A, 60 µM; in data set [2], over 100 µM; in data set [3], over 100 µM; in data set [4], 0.084 µM; in data set [5] it was 0.046 µM.
As to `c1ccc(-c2ccc(CSc3nnc(-c4ccncc4)o3)cc2)cc1`, the IC50 in data set [1] is over 100 µM; at Aurora kinase A it was over 100 µM; in data set [2], over 100 µM; in data set [3] it was over 100 µM; in data set [4] it was 0.083 µM; in data set [5], 0.052 µM.
Take `Fc1cc(F)cc(-c2ccc(CSc3nnc(-c4ccc5c(c4)OCO5)o3)cc2)c1`: the IC50 was over 100 µM in data set [1]; over 100 µM at Aurora kinase A; 80 µM in data set [2]; over 100 µM in data set [3]; 0.195 µM in data set [4]; 0.051 µM in data set [5].
In the case of `Fc1cc(F)cc(-c2ccc(CSc3nnc(-c4ccc5c(c4)OCCO5)o3)cc2)c1`, the IC50 in data set [1] is over 100 µM; at Aurora kinase A, over 100 µM; in data set [2], over 100 µM; in data set [3], over 100 µM; in data set [4], 0.966 µM; in data set [5], 0.035 µM.
